{"source": "patent EP0287014A2", "about": "“Cholesteryl-phosphoryl choline for the reduction of the cholesterol level” (F. HOFFMANN-LA ROCHE AG, priority 1987, dated 1988)", "key": {"Acute toxicity (LD50)": {"assay": "Acute toxicity (LD50)", "settings": "mouse, in vivo, Maus, read-out: LD₅₀", "description": "Was die Toxizität anbelangt, beträgt die LD₅₀ von CPC 125 mg/kg i.v. und 4000 mg/kg p.o. an der Maus."}, "Totenkopfäffchen [1]": {"tested_on": "Totenkopfäffchen", "assay": "Plasma cholesterol level during 14 days of feeding with coconut-oil diet", "format": "in vivo", "settings": "for Senkung des Cholesterinspiegels in Prozenten der Kontrolltieren: versus placebo", "description": "Totenkopfäffchen wurde pro Tier und Tag 239 mg Lactose als Placebo oder 239 mg CPC zusammen mit Kokonussöl enthaltendem Futter während 14 Tagen verabreicht. Jede 3 oder 4 Tage wurde den Tieren venöses Blut entnommen und der Cholesterinspiegel im Blutplasma ermittelt. In der nachstehenden Tabelle wird der Cholesterinspiegel in Prozenten der Vorperiode sowie die Senkung des Cholesterinspiegels in Prozenten der Kontrolltieren angegeben."}, "Totenkopfäffchen [2]": {"tested_on": "Totenkopfäffchen", "assay": "Inhibition of cholesterol absorption after oral [14C]-cholesterol test meal, faecal radioactivity over 2.5 days", "format": "in vivo", "settings": "in percent of untreated control animals", "description": "Einer Gruppe von 12 Totenkopfäffchen wurde ein Gemisch enthaltend Triolein, Stärke, Milchpulver, 1 mg [¹⁴C]-Cholesterin und 0.05 mg [³H]-Polyäthylenglycol und unmittelbar darauf eine Dispersion von CPC in 5% Gummi arabicum oral verabreicht. Hierauf wurde der Kot während 2,5 Tagen gesammelt. Die ausgeschiedene [¹⁴C]-Radioaktivität des Cholesterins wurde unter Berücksichtigung der [³H]-Radioaktivität des internen Standards Polyäthylenglycol ermittelt. Es wurde die Cholesterinabsorption (Differenz zwischen der verabreichten und der ausgeschiedenen [¹⁴C]-Radioaktivität des Cholesterins) berechnet und in der nachfolgenden Tabelle in Prozenten von unbehandelten Kontrolltieren angegeben."}}, "note": "Where two headings read alike, the source gives them in different places.", "data": [{"compound": "CC(C)CCC[C@@H](C)[C@H]1CC[C@H]2[C@@H]3CC=C4C[C@@H](OP(=O)([O-])OCC[N+](C)(C)C)CC[C@]4(C)[C@H]3CC[C@]12C", "note": "[CPC, Cholesteryl-phosphorylcholin]", "values": [{"measurement": "LD50", "setting": "Acute toxicity (LD50); iv", "value": 125, "unit": "mg/kg"}, {"measurement": "LD50", "setting": "Acute toxicity (LD50); po", "value": 4000, "unit": "mg/kg"}, {"measurement": "Cholesterinspiegel im Blutplasma in Prozenten der Vorperiode", "setting": "Totenkopfäffchen [1]; Tag 1, vor der Behandlung, 239 mg CPC per animal and day", "value": "100±8", "unit": "%"}, {"measurement": "Senkung des Cholesterinspiegels in Prozenten der Kontrolltieren", "setting": "Totenkopfäffchen [1]; Tag 1, vor der Behandlung", "value": 0, "unit": "%"}, {"measurement": "Cholesterinspiegel im Blutplasma in Prozenten der Vorperiode", "setting": "Totenkopfäffchen [1]; Tag 4, während der Behandlung, 239 mg CPC per animal and day", "value": "88±6", "unit": "%"}, {"measurement": "Senkung des Cholesterinspiegels in Prozenten der Kontrolltieren", "setting": "Totenkopfäffchen [1]; Tag 4, während der Behandlung", "value": 9, "unit": "%"}, {"measurement": "Cholesterinspiegel im Blutplasma in Prozenten der Vorperiode", "setting": "Totenkopfäffchen [1]; Tag 7, während der Behandlung, 239 mg CPC per animal and day", "value": "84±4", "unit": "%"}, {"measurement": "Senkung des Cholesterinspiegels in Prozenten der Kontrolltieren", "setting": "Totenkopfäffchen [1]; Tag 7, während der Behandlung", "value": 20, "unit": "%"}, {"measurement": "Cholesterinspiegel im Blutplasma in Prozenten der Vorperiode", "setting": "Totenkopfäffchen [1]; Tag 11, während der Behandlung, 239 mg CPC per animal and day", "value": "93±13", "unit": "%"}, {"measurement": "Senkung des Cholesterinspiegels in Prozenten der Kontrolltieren", "setting": "Totenkopfäffchen [1]; Tag 11, während der Behandlung", "value": 13, "unit": "%"}, {"measurement": "Cholesterinspiegel im Blutplasma in Prozenten der Vorperiode", "setting": "Totenkopfäffchen [1]; Tag 14, während der Behandlung, 239 mg CPC per animal and day", "value": "86±11", "unit": "%"}, {"measurement": "Senkung des Cholesterinspiegels in Prozenten der Kontrolltieren", "setting": "Totenkopfäffchen [1]; Tag 14, während der Behandlung", "value": 18, "unit": "%"}, {"measurement": "Cholesterinspiegel im Blutplasma in Prozenten der Vorperiode", "setting": "Totenkopfäffchen [1]; Tag 18, nach der Behandlung, 239 mg CPC per animal and day for 14 days", "value": "94±13", "unit": "%"}, {"measurement": "Senkung des Cholesterinspiegels in Prozenten der Kontrolltieren", "setting": "Totenkopfäffchen [1]; Tag 18, nach der Behandlung", "value": 9, "unit": "%"}, {"measurement": "Cholesterinspiegel im Blutplasma in Prozenten der Vorperiode", "setting": "Totenkopfäffchen [1]; Tag 21, nach der Behandlung, 239 mg CPC per animal and day for 14 days", "value": "97±11", "unit": "%"}, {"measurement": "Senkung des Cholesterinspiegels in Prozenten der Kontrolltieren", "setting": "Totenkopfäffchen [1]; Tag 21, nach der Behandlung", "value": 10, "unit": "%"}, {"measurement": "reversible Senkung des Plasmacholesterols", "setting": "Totenkopfäffchen [1]; summary, versus placebo values and values of the pre-period", "value": 10, "unit": "bis 20%"}, {"measurement": "Cholesterinabsorption (%)", "setting": "Totenkopfäffchen [2]; Dosis 30 µMol/kg oral", "value": "90 ± 17", "unit": "%"}, {"measurement": "Cholesterinabsorption (%)", "setting": "Totenkopfäffchen [2]; Dosis 100 µMol/kg oral", "value": "60 ± 10", "unit": "%"}, {"measurement": "Cholesterinabsorption (%)", "setting": "Totenkopfäffchen [2]; Dosis 300 µMol/kg oral", "value": "12 ± 6", "unit": "%"}]}]}
